Data taken from ChEMBL document CHEMBL2311426, “Synthesis and antibacterial activity of novel water-soluble nocathiacin analogs” (Bioorg Med Chem Lett, 2013).
In brackets after ≈: the same amount, converted by molar mass.

Columns and labels:
[1] = Aqueous solubility of the compound in water containing 5% dextrose at pH 4; type: physicochemical
Staphylococcus aureus [2] = experiment: Antibacterial activity against Staphylococcus aureus MB2865 by turbidity method; type: functional; settings: read-out: MIC100
Enterococcus faecalis = experiment: Antibacterial activity against Enterococcus faecalis C21560 by turbidity method; type: functional; settings: read-out: MIC100
Streptococcus pneumoniae = experiment: Antibacterial activity against Streptococcus pneumoniae CL2883 by turbidity method; type: functional; settings: read-out: MIC100
Staphylococcus aureus [3] = experiment: Antibacterial activity against Staphylococcus aureus MB2865 infected in iv dosed mouse assessed as >= log10 cfu kidney burden reduction administered bid after 24 hrs; type: functional
Staphylococcus aureus [4] = experiment: Ratio of vancomycin ED99 to compound ED99 for Staphylococcus aureus MB2865 infected in iv dosed mouse; type: functional
Staphylococcus aureus [5] = experiment: Antibacterial activity against Staphylococcus aureus MB2865 infected in mouse assessed as log kidney burden reduction administered at 4 mg/kg, iv bid after 24 hrs relative to control; type: functional

MIC (Staphylococcus aureus [2]) [µg/mL]	MIC (Enterococcus faecalis) [µg/mL]	MIC (Streptococcus pneumoniae) [µg/mL]	Compound	solubility [1] [µg/mL]	ED99 (Staphylococcus aureus [3]) [mg/kg]	Ratio (Staphylococcus aureus [4])	CFU (Staphylococcus aureus [5])
–	–	–	CO/C(C)=C1/NC(=O)[C@H]([C@@H](C)O)NC(=O)c2csc(n2)-c2cc(O)c(-c3nc(CNCC(C)(C)N4CCCCC4)cs3)nc2-c2csc(n2)[C@@H]2COC(=O)c3c4c5c(cccc5n3O)COC(=O)[C@@H](O[C@H]3C[C@](C)(O)[C@H](N(C)C)[C@H](C)O3)[C@@H](OC4)[C@H](NC(=O)c3csc1n3)c1nc(cs1)C(=O)N2.O=C(O)C(F)(F)F	> 10000	–	–	–
–	–	–	CO/C(C)=C1/NC(=O)[C@H]([C@@H](C)O)NC(=O)c2csc(n2)-c2cc(O)c(-c3nc(CNCCO)cs3)nc2-c2csc(n2)[C@@H]2COC(=O)c3c4c5c(cccc5n3O)COC(=O)[C@@H](O[C@H]3C[C@](C)(O)[C@H](N(C)C)[C@H](C)O3)[C@@H](OC4)[C@H](NC(=O)c3csc1n3)c1nc(cs1)C(=O)N2.O=C(O)C(F)(F)F	> 10000	–	–	–
–	–	–	CO/C(C)=C1/NC(=O)[C@H]([C@@H](C)O)NC(=O)c2csc(n2)-c2cc(O)c(-c3nc(CNCC(O)CO)cs3)nc2-c2csc(n2)[C@@H]2COC(=O)c3c4c5c(cccc5n3O)COC(=O)[C@@H](O[C@H]3C[C@](C)(O)[C@H](N(C)C)[C@H](C)O3)[C@@H](OC4)[C@H](NC(=O)c3csc1n3)c1nc(cs1)C(=O)N2.O=C(O)C(F)(F)F (stereo not given in full)	> 10000	–	–	–
–	–	–	CO/C(C)=C1/NC(=O)[C@H]([C@@H](C)O)NC(=O)c2csc(n2)-c2cc(O)c(-c3nc(CNCC[C@H](O)[C@H](O)CO)cs3)nc2-c2csc(n2)[C@@H]2COC(=O)c3c4c5c(cccc5n3O)COC(=O)[C@@H](O[C@H]3C[C@](C)(O)[C@H](N(C)C)[C@H](C)O3)[C@@H](OC4)[C@H](NC(=O)c3csc1n3)c1nc(cs1)C(=O)N2.O=C(O)C(F)(F)F	> 10000	–	–	–
–	–	–	CO/C(C)=C1/NC(=O)[C@H]([C@@H](C)O)NC(=O)c2csc(n2)-c2cc(O)c(-c3nc(CN(C)C)cs3)nc2-c2csc(n2)[C@@H]2COC(=O)c3c4c5c(cccc5n3O)COC(=O)[C@@H](O[C@H]3C[C@](C)(O)[C@H](N(C)C)[C@H](C)O3)[C@@H](OC4)[C@H](NC(=O)c3csc1n3)c1nc(cs1)C(=O)N2.O=C(O)C(F)(F)F	> 10000	–	–	–
–	–	–	CO/C(C)=C1/NC(=O)[C@H]([C@@H](C)O)NC(=O)c2csc(n2)-c2cc(O)c(-c3nc(CN)cs3)nc2-c2csc(n2)[C@@H]2COC(=O)c3c4c5c(cccc5n3O)COC(=O)[C@@H](O[C@H]3C[C@](C)(O)[C@H](N(C)C)[C@H](C)O3)[C@@H](OC4)[C@H](NC(=O)c3csc1n3)c1nc(cs1)C(=O)N2.O=C(O)C(F)(F)F	> 10000	–	–	–
0.06 (≈ 0.0401 µM)	0.12 (≈ 0.0802 µM)	0.0075 (≈ 0.00501 µM)	CO/C(C)=C1/NC(=O)[C@H]([C@@H](C)O)NC(=O)c2csc(n2)-c2cc(O)c(-c3nc(CNC(=O)CCN4CCOCC4)cs3)nc2-c2csc(n2)[C@@H]2COC(=O)c3c4c5c(cccc5n3O)COC(=O)[C@@H](O[C@H]3C[C@](C)(O)[C@H](N(C)C)[C@H](C)O3)[C@@H](OC4)[C@H](NC(=O)c3csc1n3)c1nc(cs1)C(=O)N2	–	>0.5	–	–
0.06 (≈ 0.0409 µM)	0.25 (≈ 0.17 µM)	0.0038 (≈ 0.00259 µM)	CO/C(C)=C1/NC(=O)[C@H]([C@@H](C)O)NC(=O)c2csc(n2)-c2cc(O)c(-c3nc(CNC(=O)C(C)NC(N)=O)cs3)nc2-c2csc(n2)[C@@H]2COC(=O)c3c4c5c(cccc5n3O)COC(=O)[C@@H](O[C@H]3C[C@](C)(O)[C@H](N(C)C)[C@H](C)O3)[C@@H](OC4)[C@H](NC(=O)c3csc1n3)c1nc(cs1)C(=O)N2 (stereo not given in full)	–	0.02	200	–
0.0225 (≈ 0.0156 µM)	0.03 (≈ 0.0207 µM)	0.0007 (≈ 0.000484 µM)	CO/C(C)=C1/NC(=O)[C@H]([C@@H](C)O)NC(=O)c2csc(n2)-c2cc(O)c(-c3nc(CNCc4cncnc4)cs3)nc2-c2csc(n2)[C@@H]2COC(=O)c3c4c5c(cccc5n3O)COC(=O)[C@@H](O[C@H]3C[C@](C)(O)[C@H](N(C)C)[C@H](C)O3)[C@@H](OC4)[C@H](NC(=O)c3csc1n3)c1nc(cs1)C(=O)N2	–	0.13	–	–
0.03 (≈ 0.0215 µM)	0.06 (≈ 0.0429 µM)	0.00046 (≈ 0.000329 µM)	CO/C(C)=C1/NC(=O)[C@H]([C@@H](C)O)NC(=O)c2csc(n2)-c2cc(O)c(-c3nc(CNCCO)cs3)nc2-c2csc(n2)[C@@H]2COC(=O)c3c4c5c(cccc5n3O)COC(=O)[C@@H](O[C@H]3C[C@](C)(O)[C@H](N(C)C)[C@H](C)O3)[C@@H](OC4)[C@H](NC(=O)c3csc1n3)c1nc(cs1)C(=O)N2	–	0.32	–	–
0.03 (≈ 0.0217 µM)	0.0075 (≈ 0.00542 µM)	0.00095 (≈ 0.000687 µM)	CO/C(C)=C1/NC(=O)[C@H]([C@@H](C)O)NC(=O)c2csc(n2)-c2cc(O)c(-c3nc(CN(C)C)cs3)nc2-c2csc(n2)[C@@H]2COC(=O)c3c4c5c(cccc5n3O)COC(=O)[C@@H](O[C@H]3C[C@](C)(O)[C@H](N(C)C)[C@H](C)O3)[C@@H](OC4)[C@H](NC(=O)c3csc1n3)c1nc(cs1)C(=O)N2	–	>0.5	–	–
0.077 (≈ 0.0568 µM)	0.06 (≈ 0.0443 µM)	0.00047 (≈ 0.000347 µM)	CO/C(C)=C1/NC(=O)[C@H]([C@@H](C)O)NC(=O)c2csc(n2)-c2cc(O)c(-c3nc(CN)cs3)nc2-c2csc(n2)[C@@H]2COC(=O)c3c4c5c(cccc5n3O)COC(=O)[C@@H](O[C@H]3C[C@](C)(O)[C@H](N(C)C)[C@H](C)O3)[C@@H](OC4)[C@H](NC(=O)c3csc1n3)c1nc(cs1)C(=O)N2	–	>0.5	–	–
–	–	–	CN[C@H](CC(C)C)C(=O)N[C@H]1C(=O)N[C@@H](CC(N)=O)C(=O)N[C@H]2C(=O)N[C@H]3C(=O)N[C@H](C(=O)N[C@H](C(=O)O)c4cc(O)cc(O)c4-c4cc3ccc4O)[C@H](O)c3ccc(c(Cl)c3)Oc3cc2cc(c3O[C@@H]2O[C@H](CO)[C@@H](O)[C@H](O)[C@H]2O[C@H]2C[C@](C)(N)[C@H](O)[C@H](C)O2)Oc2ccc(cc2Cl)[C@H]1O [VANCOMYCIN]	–	0.17	–	–

Compound	MIC (Staphylococcus aureus [2]) [µg/mL]	MIC (Enterococcus faecalis) [µg/mL]	MIC (Streptococcus pneumoniae) [µg/mL]	solubility [1] [µg/mL]	ED99 (Staphylococcus aureus [3]) [mg/kg]	Ratio (Staphylococcus aureus [4])	CFU (Staphylococcus aureus [5])
CO/C(C)=C1/NC(=O)[C@H]([C@@H](C)O)NC(=O)c2csc(n2)-c2cc(O)c(-c3nc(CNC(=O)CN4CCN(C)CC4)cs3)nc2-c2csc(n2)[C@@H]2COC(=O)c3c4c5c(cccc5n3O)COC(=O)[C@@H](O[C@H]3C[C@](C)(O)[C@H](N(C)C)[C@H](C)O3)[C@@H](OC4)[C@H](NC(=O)c3csc1n3)c1nc(cs1)C(=O)N2	0.0375 (≈ 0.0251 µM)	0.09 (≈ 0.0602 µM)	0.0007 (≈ 0.000468 µM)	–	0.28	–	1.08
CO/C(C)=C1/NC(=O)[C@H]([C@@H](C)O)NC(=O)c2csc(n2)-c2cc(O)c(-c3nc(CNC(=O)CN4CCOCC4)cs3)nc2-c2csc(n2)[C@@H]2COC(=O)c3c4c5c(cccc5n3O)COC(=O)[C@@H](O[C@H]3C[C@](C)(O)[C@H](N(C)C)[C@H](C)O3)[C@@H](OC4)[C@H](NC(=O)c3csc1n3)c1nc(cs1)C(=O)N2	0.0075 (≈ 0.00506 µM)	0.015 (≈ 0.0101 µM)	0.00046 (≈ 0.00031 µM)	–	>0.5	–	–
CO/C(C)=C1/NC(=O)[C@H]([C@@H](C)O)NC(=O)c2csc(n2)-c2cc(O)c(-c3nc(CNC(=O)CN(C)C)cs3)nc2-c2csc(n2)[C@@H]2COC(=O)c3c4c5c(cccc5n3O)COC(=O)[C@@H](O[C@H]3C[C@](C)(O)[C@H](N(C)C)[C@H](C)O3)[C@@H](OC4)[C@H](NC(=O)c3csc1n3)c1nc(cs1)C(=O)N2	0.06 (≈ 0.0417 µM)	0.25 (≈ 0.174 µM)	0.0075 (≈ 0.00521 µM)	–	>0.5	–	–
